Test results as given in publication PMC6251916, “CKD-506, a novel HDAC6-selective inhibitor, improves renal outcomes and survival in a mouse model of systemic lupus erythematosus” (Scientific Reports, 2018).

Legend:
[1] = test system: NZB/W F1 female mice; assay: Murine SLE model: flow cytometry of splenocytes; assay type: in vivo, mouse
Text: Single cell suspensions were obtained from the spleens of NZB/W F1 mice at autopsy (at 43–44 weeks of age). The splenocytes were stained with PerCP-Cy5.5-conjugated anti-mouse CD3e (PerCP-cy5.5-CD3e, eBioscience, San Diego, CA, USA), fluorescein isothiocyanate (FITC)-conjugated anti-mouse CD4 (FITC-CD4, BD Biosciences, San Jose, CA, USA), PE-cyanine7-conjugated anti-mouse CD8a (eBioscience), allo-phycocyanin (APC)-conjugated anti-mouse CD25 (BD Biosciences) and PE-conjugated anti-mouse CD138 (BD Biosciences).
T cell profile was analyzed as described previously; briefly, we examined proportions of Th1 cells (CD4^+CD25^+T-bet^+), Th2 cells (CD4^+CD25^+GATA-3^+), Th17 cells (CD4^+CD25^+ROR-γt^+), and Treg cells (CD4^+CD25^+Foxp3^+). To analyze T helper subsets, the splenocytes were stained with antibodies to CD4 and CD25 (FITC-conjugated anti-mouse CD4 and APC-conjugated anti-mouse CD25, BD Biosciences). Cells were fixed and permeabilized prior to staining with T-bet, GATA-3, ROR-γt and Foxp3 antibodies (PE-, BD Biosciences).

[2] = test system: NZB/W F1 female mice; assay: Murine SLE model: cytokine levels in kidney extracts; assay type: in vivo, mouse; settings: at autopsy, mean ± SD
Protocol: The kidneys were weighed and then transferred into dPBS (Welgene) supplemented with anti-protease Complete TM cocktail (Boehringer) using 12.5 μl of dPBS per milligram of wet weight tissue. Samples were homogenized twice using an Automill TK-AM5 freeze-crushing cell homogenizer (W 280 mm × D 390 mm × H 290 mm, Tokken Inc., Chiba, Japan) at 1,400 rpm for 90 seconds and then centrifuged at 16,000 × g for 15 min at 4 °C. The supernatants were collected and total protein concentrations were determined in the kidney extracts using a bicinchoninic acid (BCA) protein assay kit™ (Pierce). Total protein concentrations of the kidney extracts were adjusted to 2 mg/dl and used for the analysis of IFN-γ, IL-10, IL-15, IL-17, IL-1β, IL-4, IL-6, IP-10, MCP-1, CCL4, RANTES, TNF-α and sCD40L with Milliplex® MAP Kits (Millipore).

[3] = test system: NZB/W F1 female mice; assay: Murine SLE model: serum immunoglobulin isotyping; assay type: in vivo, mouse; settings: group CKD50
Protocol: (§1) Survival had been monitored until 42 weeks of age.
Serum immunoglobulin concentrations were determined with mouse IgG1, IgG2A, IgG2B, IgG3, and IgM Isotyping kits and a mouse Mag Isotyping assay base kit (R&D Systems, Minneapolis, MN). Thirty-fold diluted sera were used for analysis of IgM and IgG2B levels, 6000-fold diluted sera were used for analysis of IgG1 and IgG2A levels and 48,000-fold diluted sera were used for analysis of IgG3 level.

[4] = biological target: T1, HDAC8 (Homo sapiens, UniProt Q9BY41); assay: HDAC panel assay (enzyme activity); assay type: biochemical
T1 construct: purchased Reaction biology Corp. (Malvern, PA, USA)
T1 sequence (Q9BY41 1-377): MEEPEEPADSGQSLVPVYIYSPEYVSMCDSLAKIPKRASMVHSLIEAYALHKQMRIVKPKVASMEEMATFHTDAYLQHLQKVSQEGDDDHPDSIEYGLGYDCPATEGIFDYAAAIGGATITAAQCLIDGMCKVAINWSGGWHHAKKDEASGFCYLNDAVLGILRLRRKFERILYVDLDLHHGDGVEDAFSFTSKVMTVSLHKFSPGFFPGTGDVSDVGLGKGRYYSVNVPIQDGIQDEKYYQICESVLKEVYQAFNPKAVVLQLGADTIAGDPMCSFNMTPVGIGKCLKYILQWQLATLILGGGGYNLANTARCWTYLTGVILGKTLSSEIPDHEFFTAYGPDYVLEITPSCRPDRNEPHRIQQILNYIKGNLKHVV
Protocol: HDAC panel assay was performed by Reaction biology Corp. (Malvern, PA, USA) according to their validated protocol. To evaluate the potency and selectivity of CKD-506, HDAC panel assay was carried out by Reaction biology Corp. Briefly, the deacetylation reaction was performed in 50 mM Tris-HCl pH 8.0, 137 mM NaCl, 2.7 mM KCl, 1 mM MgCl2, and 1 mg/ml bovine serum albumin (BSA) with RHK-K(Ac)-AMC as substrate. After the reaction, a fluorescence signal (Ex. 360 nm/Em. 460 nm) developed (~30 min.) by addition of an equal volume of 2 mM nicotinamide, 16 mg/mL trypsin in 50 mM Tris-HCl pH 8.0, 137 mM NaCl, 2.7 mM KCl, and 1 mM MgCl2.

[5] = test system: NZB/W F1 female mice; assay: Murine SLE model: kidney histopathology (H&E, PAS, Masson trichrome); assay type: in vivo, mouse; settings: group CKD10
Text: as §1
Kidneys were harvested from mice at the end of the study (at 43–44 weeks of age). For light microscopy, the tissues were fixed in 10% neutral buffered formalin, embedded in paraffin wax, sectioned at a thickness of 5 μm and stained with H&E (BBC Biochemical, Mount Vernon, WA, USA). Periodic acid/Schiff (PAS stain kit, BBC Biochemical) staining and Masson trichrome (BBC Biochemical) staining were used for the detection of […] and fibrosis, respectively. Inflammatory cell infiltration and mesangial proliferation were scored on a 4-point scale as 0 (none), 1+ (mild), 2+ (moderate), 3+ (moderate to severe) and 4+ (severe).

[6] = group D: CKD-506 10 mg/kg/day, n = 10
[7] = group E: CKD-506 30 mg/kg/day, n = 14

## CKD-506
[1]; group CKD10, spleen
  fewer CD4−CD8− cells compared with group vehicle: 19.1%
  fewer CD138+ cells compared with group vehicle: 21.2%
[1]; group CKD30, spleen
  fewer CD4−CD8− cells compared with group vehicle: 28.3%
  fewer CD138+ cells compared with group vehicle: 25.2%
[1]; group CKD50
  CD4−CD8+ T cells in spleen vs vehicle: significantly more
  percentage of CD25+ cells in spleen vs vehicle: significantly lower
[1]; group CKD50, spleen
  T-bet expression by CD4+ cells vs vehicle: significantly lower
  fewer CD4−CD8− cells compared with group vehicle: 27.3%
  fewer CD138+ cells compared with group vehicle: 31.6%
[2]; [6]
  Kidney extract CCL2: 61.30 ± 70.39 pg/mL
  Kidney extract CCL4: 12.77 ± 23.90 pg/mL
  Kidney extract IFN-γ: 17.46 ± 15.04 pg/mL
  Kidney extract IL-1β: 2.09 ± 2.68 pg/mL
  Kidney extract IL-4: 0.01 ± 0.02 pg/mL
  Kidney extract IL-6: 3.99 ± 2.72 pg/mL
  Kidney extract IL-10: 9.43 ± 4.36 pg/mL
  Kidney extract IL-15: 34.25 ± 21.24 pg/mL
  Kidney extract IP-10: 98.47 ± 44.61 pg/mL
  Kidney extract RANTES: 31.17 ± 24.93 pg/mL
  Kidney extract TNF-α: Not detected
[2]; [7]
  Kidney extract CCL2: 21.90 ± 17.10 pg/mL
  Kidney extract CCL4: 1.70 ± 4.61 pg/mL
  Kidney extract IFN-γ: 13.12 ± 4.85 pg/mL
  Kidney extract IL-1β: 1.18 ± 2.19 pg/mL
  Kidney extract IL-4: 0.02 ± 0.05 pg/mL
  Kidney extract IL-6: 1.65 ± 0.82 pg/mL
  Kidney extract IL-10: 9.62 ± 2.42 pg/mL
  Kidney extract IL-15: 42.42 ± 16.89 pg/mL
  Kidney extract IP-10: 63.40 ± 21.06 pg/mL
  Kidney extract RANTES: 9.30 ± 7.86 pg/mL
  Kidney extract TNF-α: Not detected
[2]; group F: 50 mg/kg/day, n = 14
  Kidney extract CCL2: 3.15 ± 6.10 pg/mL
  Kidney extract CCL4: Not detected*
  Kidney extract IFN-γ: 6.77 ± 4.06 pg/mL
  Kidney extract IL-1β: 0.26 ± 0.60 pg/mL
  Kidney extract IL-4: Not detected*
  Kidney extract IL-6: 0.43 ± 0.45 pg/mL
  Kidney extract IL-10: 7.60 ± 2.08 pg/mL
  Kidney extract IL-15: 32.82 ± 11.63 pg/mL
  Kidney extract IP-10: 43.90 ± 14.50 pg/mL
  Kidney extract RANTES: 3.80 ± 2.17 pg/mL
  Kidney extract TNF-α: Not detected
[3]
  serum levels of IgM vs vehicle: significantly lower
[4]
  IC50: 2 to 5 µM
[5]
  Masson's trichrome staining of kidneys: fibrosis
  Periodic acid-Schiff (PAS) staining of kidneys: dilated tubules and casts
  histopathological evaluation of the kidneys (H&E): Large numbers of inflammatory cell infiltrations and mesangial proliferation
